Laboratory results taken from patent US20010053758A1, “Methods and compositions for the treatment and prevention of lung disease” (priority 1999, published 2001).

How the values were obtained:
[1] = tested on: alveolus formation (septation) in rat lung; assay: Alveolus formation in newborn rat pups injected intraperitoneally daily (lung histology and morphometry); type: in vivo, Sprague-Dawley rat
From the text: The expression of the RARβ receptor has been associated in certain cases with diminished cell replication. Following the initial injection, the rat pups were subjected to identical daily injections until day 13. A set of rat pups were sacrificed at day 4 and at […] by anesthesia with phenobarbitol sodium and scission of the abdominal aorta. Following sacrifice, rat lungs were fixed and histological sections prepared essentially as described in Massaro et al., Am. J. Physiol. 270: L305 (1996), incorporated by reference herein. The histological sections were viewed and photographs taken under light microscopy.
The differences in alveolar dimensions between treated and untreated rat pups were so pronounced, they were quantitated by measuring the distance between alveolar walls (Lm) and the surface-to-volume ratio (S/V) of the gas-exchange structures (septa). The Lm in cottonseed oil-treated rats was 80 μm±2.8 μm (N=4) compared to 110 μm±7.3 μm (N=3) in RARβ agonist-treated rats (N=3; P=0.03 by Mann Whitney nonparametric analysis). The S/V was 504 μm^−1±18 μm^−1 (N=4) in cottonseed oil-treated rats compared to 365 μm^−1±23 μm^−1 (N=3) in RARβ agonist-treated rats (P=0.03).

RARβ = biological target: T1, RARβ (Homo sapiens, UniProt P10826); assay: RAR receptor activity as stated for the retinoid ligand; settings: ligand specific to RAR receptors and not to RXR receptors
T1 sequence (P10826 1-455): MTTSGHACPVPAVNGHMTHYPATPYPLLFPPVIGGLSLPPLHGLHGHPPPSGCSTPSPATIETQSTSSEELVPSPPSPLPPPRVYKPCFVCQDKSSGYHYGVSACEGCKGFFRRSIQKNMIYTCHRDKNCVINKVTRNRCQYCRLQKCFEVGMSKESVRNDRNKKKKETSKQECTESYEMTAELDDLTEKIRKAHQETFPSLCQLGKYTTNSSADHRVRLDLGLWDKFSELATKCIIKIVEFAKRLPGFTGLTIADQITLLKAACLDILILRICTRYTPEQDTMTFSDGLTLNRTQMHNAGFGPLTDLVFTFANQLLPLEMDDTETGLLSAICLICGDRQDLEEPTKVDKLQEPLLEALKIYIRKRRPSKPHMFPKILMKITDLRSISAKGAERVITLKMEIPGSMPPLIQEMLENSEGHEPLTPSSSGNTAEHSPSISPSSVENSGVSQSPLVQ
From the text: Likewise, methods of screening candidate compounds for Specific RAR modulating activity is routine and well-known in the art. For example, U.S. Pat. No. 5,455,265, incorporated by reference herein, describes a chimeric receptor transactivation assay which tests for RAR-agonist activity in the RAR-α, RAR-β, RAR-γ, RXR-α receptor subtypes. Briefly, this assay employs chimeric proteins containing an RAR ligand-binding domain and a heterologous polypeptide segment having the ability to bind to a response element (RE), in turn facilitating transcription of a specific, measurable target gene, such as chloramphenicol acetyltransferase (CAT). Only an agonist of the given RAR isotype whose ligand binding domain comprises part of the chimeric protein will permit the activation of CAT transcription and expression. […] For example, those ligands able to stimulate CAT synthesis when used in combination with chimeric proteins having RAR binding domains, but not those having RXR ligand binding domains, will be RAR specific agonists.

[2] = tested on: elastase-induced destruction of alveolar walls; settings: elastase-treated rats; cited from earlier work
[3] = tested on: alveolus formation in newborn rat lung; settings: newborn rats; cited from earlier work

| SMILES | histological sections: alveolar size and degree of septation ([1]; age 14 days, treated daily from age 3 through 13 days, versus cottonseed oil alone (FIGS. 1A and 1B)) | distance between alveolar walls (Lm) ([1]; rat pups, 500 micrograms per kg i.p. daily from age 3 to 13 days, age 14 days, N=3, cottonseed oil control 80 μm±2.8 μm, P=0.03) [μm] | surface-to-volume ratio (S/V) of the gas-exchange structures ([1]; rat pups, 500 micrograms per kg i.p. daily from age 3 to 13 days, N=3, cottonseed oil control 504 μm^−1±18 μm^−1, P=0.03) [μm^−1] | surface area ([1]; rat pups, 500 micrograms per kg i.p. daily from age 3 to 13 days, cottonseed oil control 634 cm^2 ±9 cm^2, P=0.03) [cm^2] | Lung volume ([1]; treated rats versus cottonseed oil-treated rats) | receptor activity (RARβ) | effect on elastase-induced alveolar wall destruction [2] | effect on number of alveoli [3] |
| --- | --- | --- | --- | --- | --- | --- | --- | --- |
| CC1(C)CC=C(c2cccs2)c2cc(C#Cc3ccc(C(=O)O)cc3)ccc21 [AGN 193174] | alveoli were larger, and the degree of sepatation less | 110 | 365 | 492 | the same in both rat groups | RARβ agonist activity |  |  |
| CC1=C(/C=C/C(C)=C/C=C/C(C)=C/C(=O)O)C(C)(C)CCC1 [all-trans-retinoic acid] |  |  |  |  |  |  | appeared to reverse this destruction | induced the formation of an increased number of alveoli in rats without enlarging the lung |
